Measurements published in US9155792B2, “RecA inhibitors with antibiotic activity, compositions and methods of use” (Trustees of Boston University, priority 2006, dated 2015).

How the values were obtained:
[1] = molecular target: T1, E. coli RecA protein (Escherichia coli, UniProt P0A7G6); experiment: RecA ATPase luciferase assay; type: biochemical; conditions: compounds of FIGS. 2A and 2B
T1 construct: purchased New England Biolabs
Protocol: RecA is a DNA-dependent ATPase (i.e., it catalyzes the reaction adenosine triphosphate [ATP]→adenosine diphosphate [ADP]). An assay was developed for RecA ATPase activity based on detection of the amount of ATP remaining in a reaction mixture following incubation of RecA protein, DNA, and ATP. In the assay, E. coli RecA protein is incubated in reaction buffer with DNA, ATP, and any test compound or compounds for a measured amount of time. The quantity of ATP remaining after the RecA reaction is quantitated using a subsequent luciferase assay. The amount of ATP remaining can be compared to controls containing either a known inhibitor (full inhibition control) or no test compound (full activity control).
Kinase glo, Adenosine triphosphate, Adenosine 5′-O-(3-thiotriphosphate) plus and 384 well plates were obtained from Fisher, M13mp18 Single-stranded DNA, RecA protein, and T4 polynucleotide kinase reaction buffer (70 mM Tris-HCl pH7.5; 10 mM MgCl2; 5 mM DTT) were obtained from New England Biolabs.
Final reaction mixture contains: 0.5 μl of M13 single stranded DNA (250 μg/ml); 1.0 μl of 10×PHK buffer; 0.25 μl of RecA (2 mg/ml); 0.25 μl of 1 mM ATP; 0.25 μl of test compound in DMSO; and 12.0 μl of H2O.
Test compounds are incubated at room temperature in the presence of RecA protein and DNA prior to addition of ATP. This can be achieved by the preparation of two mixes, as indicated below. Desirably, both a no-DNA and a DNA/DMSO-only (i.e., no test compound) control were included.
The following steps are then performed: (1) Add 7.75 μl of mix 1 to the well of a 384 well plate; (2) Add 0.5 μl of the compound of interest; (3) Incubate at room temperature for 5 minutes; (4) Add 2.5 μl of the ATP mix. Incubate at room temperature for 30 minutes; (5) Add 12.5 μl of Promega Kinase glo plus; (6) Incubate at room temp for 10 minutes or more; and (7) Measure luminescence of the reaction.
Tested compounds were obtained from Boston University (1205 compounds from CMLD diversity library, available from Dr. Scott Schauss), IndoFine (66 compounds based on flavone structure), ChemdiV (48 compounds known to be ATPase inhibitors and 720 compounds structurally related to CB101 (described, for example, in U.S. Ser. No. 60/662,038), and Asinex. Five (5) tested compounds were bisflavones and 28 were predicted, based on structural modeling (see, for example, Example 20) to dock with Rec A. Many of the compounds are lipophilic, natural-product-like compounds. Others are flavones, bisflavones, flavonoids, coumarins, and/or heterocyclic compounds.
Percent inhibition is calculated according to the following equation:
[formula] A value of “−1” indicates higher than 50 μg/ml, therefore undetermined

[2] = test system: S. aureus cells; experiment: Mutation/resistance assay (resistance to ciprofloxacin); type: cell-based
Protocol: This assay measures the rate at which mutant cells arise in the presence of an antibiotic agent. Cells are grown in the presence of antibiotic agent at a concentration above (generally well above, e.g., 4× or 8×) its MIC, and further in the presence or absence of a test agent (that may inhibit or enhance mutation).
Every 24 hours, an aliquot is removed from the culture and is diluted so that the antibiotic agent is no longer present at a concentration above its MIC (e.g., so that the antibiotic agent is present at 0.5×MIC or less). These aliquoted samples are then assayed to determine whether they can grow in the presence of the antibiotic agent. Specifically, when growth is observed in the presence of antibiotic agent at a concentration that is 4×MIC, then resistance is said to have developed. Test compounds can therefore be assayed to assess whether or not they can reduce the incidence of resistance (e.g., by inhibiting mutation).
These aliquoted samples were then assayed to determine whether they can grow in the presence of ciprofloxacin. […]

[3] = test system: S. aureus strain S3 (ISP 794); experiment: Cell-based survival assay, S. aureus strain S3 (RecA+); conditions: 1 μg/ml ciprofloxacin + 25 μg/ml hinokiflavone, 16 hour time point

T1 sequence (P0A7G6 2-353): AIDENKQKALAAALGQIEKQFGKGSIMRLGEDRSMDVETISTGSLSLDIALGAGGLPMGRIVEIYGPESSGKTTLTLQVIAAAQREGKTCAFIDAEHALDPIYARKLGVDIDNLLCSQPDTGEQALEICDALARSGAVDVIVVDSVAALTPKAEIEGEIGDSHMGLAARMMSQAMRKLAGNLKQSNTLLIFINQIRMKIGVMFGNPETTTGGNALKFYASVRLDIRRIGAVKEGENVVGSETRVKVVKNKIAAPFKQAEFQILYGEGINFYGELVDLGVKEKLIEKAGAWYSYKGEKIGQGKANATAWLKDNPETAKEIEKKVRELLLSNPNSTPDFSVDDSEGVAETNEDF

For `O=c1c(O)c(-c2ccc(O)cc2)oc2cc(O)ccc12` [3,7,4′-trihydroxyflavone], which “activity in RecA ATPase screen” value [1] is on record?
The value was “particularly active”.

For `O=c1cc(-c2ccc(O)cc2)oc2cc(O)c(O)c(O)c12` [6-hydroxy-apigenin], which “activity in RecA ATPase screen” value [1] is on record?
Its value is “particularly active”.

How did the “activity in RecA ATPase screen” value [1] turn out when `O=c1cc(-c2ccc(O)cc2)oc2cc(O[C@@H]3O[C@H](CO)[C@@H](O)[C@H](O)[C@H]3O)cc(O)c12` [apigenin-7-O-glucoside] was run?
The value was “particularly active”.

How did the “activity in RecA ATPase screen” value [1] turn out when `O=c1cc(-c2ccc(O)cc2)oc2cc(O)cc(O)c12` [apigenin] was run?
Its value is “particularly active”.

For `O=C(O)c1cn(C2CC2)c2cc(N3CCNCC3)c(F)cc2c1=O` [ciprofloxacin, reference compound], which “Number of Wells in which Growth Observed in Presence of Ciprofloxacin at 4 × MIC” value (shortened to “Number of Wells in which Growth Observed”) ([2]; culture grown 0 days in 4×MIC ciprofloxacin, −Hinokiflavone) is on record?
The value was 0.

What about the “Number of Wells in which Growth Observed” value ([2]; culture grown 1 day in 4×MIC ciprofloxacin, −Hinokiflavone) of the same molecule?
Its value is 1.

And the “Number of Wells in which Growth Observed” value ([2]; culture grown 5 days in 4×MIC ciprofloxacin, −Hinokiflavone)?
The value was 2.

And the “Number of Wells in which Growth Observed” value ([2]; culture grown 6 days in 4×MIC ciprofloxacin, −Hinokiflavone)?
The value was 2.

What about the “Number of Wells in which Growth Observed” value ([2]; culture grown 7 days in 4×MIC ciprofloxacin, −Hinokiflavone) of the same molecule?
Its value is 3.

What about the “Number of Wells in which Growth Observed” value ([2]; culture grown 10 days in 4×MIC ciprofloxacin, −Hinokiflavone) of the same molecule?
Its value is 11.

How did the “activity in RecA ATPase screen” value [1] turn out when `O=c1c(O)c(-c2ccc(O)c(O)c2)oc2cc(O)ccc12` [fisetin] was run?
Its value is “particularly active”.

For `O=c1cc(-c2ccc(Oc3c(O)cc4oc(-c5ccc(O)cc5)cc(=O)c4c3O)cc2)oc2cc(O)cc(O)c12` [hinokiflavone], which “Number of Wells in which Growth Observed” value ([2]; culture grown 0 days in 4×MIC ciprofloxacin, +Hinokiflavone (25 μg/ml)) is on record?
Its value is 0.

And the “Number of Wells in which Growth Observed” value ([2]; culture grown 1 day in 4×MIC ciprofloxacin, +Hinokiflavone (25 μg/ml))?
The value was 0.

And the “Number of Wells in which Growth Observed” value ([2]; culture grown 5 days in 4×MIC ciprofloxacin, +Hinokiflavone (25 μg/ml))?
The value was 0.

What about the “Number of Wells in which Growth Observed” value ([2]; culture grown 6 days in 4×MIC ciprofloxacin, +Hinokiflavone (25 μg/ml)) of the same molecule?
The value was 0.

And the “Number of Wells in which Growth Observed” value ([2]; culture grown 7 days in 4×MIC ciprofloxacin, +Hinokiflavone (25 μg/ml))?
Its value is 3.

What about the “Number of Wells in which Growth Observed” value ([2]; culture grown 10 days in 4×MIC ciprofloxacin, +Hinokiflavone (25 μg/ml)) of the same molecule?
The value was 4.

And the “fewer CFUs in presence of hinokiflavone as compared with its absence” value [3]?
The value was “approximately 100 fold”.

How did the “activity in RecA ATPase screen” value [1] turn out when `COc1cc(-c2oc3cc(O)cc(O)c3c(=O)c2O)ccc1O` [isorhamnetin] was run?
The value was “particularly active”.

How did the “activity in RecA ATPase screen” value [1] turn out when `O=c1c(O)c(-c2ccc(O)cc2)oc2cc(O)cc(O)c12` [kaempferol] was run?
Its value is “particularly active”.

`O=C(c1ccc(O)c(O)c1)c1c(O)cc(O)cc1O` [maclurin] was tested. Which “activity in RecA ATPase screen” value [1] did it give?
Its value is “particularly active”.

Which “activity in RecA ATPase screen” value [1] does the source give for `O=c1c(O)c(-c2ccc(O)cc2O)oc2cc(O)cc(O)c12` [morin] here?
Its value is “particularly active”.

With `O=c1c(O)c(-c2ccc(O)c(O)c2)oc2cc(O)c(O)c(O)c12` [quercetagetin] as the molecule, how does the “activity in RecA ATPase screen” value [1] read?
The value was “particularly active”.

With `O.O.O=c1c(O)c(-c2ccc(O)c(O)c2)oc2cc(O)cc(O)c12` [quercetin dihydrate] as the molecule, how does the “activity in RecA ATPase screen” value [1] read?
Its value is “particularly active”.

Which “activity in RecA ATPase screen” value [1] does the source give for `O=c1c(O)cc([C@H]2Oc3cc(O)cc(O)c3C[C@H]2O)cc2c([C@H]3Oc4cc(O)cc(O)c4C[C@H]3O)cc(O)c(O)c12` [theaflavin] here?
Its value is “particularly active”.
